# Data reported in US8013006B2.
# System: HCV replicon
# Assay: microbe, parasite or virus in culture
# Type: cell-based
# Details: Hepatitis C virus, 48 h, read-out: Replicon IC5Os
row,Structure (SMILES),IC50 [nM]
1,CCOC(=O)Nc1cccc(-c2c(C#N)c3ccc(OCCCn4ccnc4)cc3n2CC)c1 [Compound 525],500 to 2000
2,CCOC(=O)Nc1cccc(-c2c(C#N)c3ccc(OCCCN4CCN(C)CC4)cc3n2CC)c1 [Compound 526],< 500
3,CCOC(=O)Nc1cccc(-c2c(C#N)c3ccc(OCCCN(C)CCOC)cc3n2CC)c1 [Compound 531],500 to 2000
4,CCOC(=O)Nc1ccc(-c2c(C#N)c3ccc(OCCCn4ccnc4)cc3n2CC)cc1 [Compound 532],500 to 2000
5,CCOC(=O)Nc1ccc(-c2c(C#N)c3ccc(OCCCN4CCN(C)CC4)cc3n2CC)cc1 [Compound 533],500 to 2000
6,CCOC(=O)Nc1ccc(-c2c(C#N)c3ccc(OCCCN4CCSCC4)cc3n2CC)cc1 [Compound 534],< 500
7,CCOC(=O)Nc1ccc(-c2c(C#N)c3ccc(OCCCN4CCCCC4)cc3n2CC)cc1 [Compound 535],< 500
8,CCOC(=O)Nc1ccc(-c2c(C#N)c3ccc(OCCCn4ccnn4)cc3n2CC)cc1 [Compound 536],500 to 2000
9,CCOC(=O)Nc1ccc(-c2c(C#N)c3ccc(OCCCN4CCCC4)cc3n2CC)cc1 [Compound 537],< 500
10,CCOC(=O)Nc1ccc(-c2c(C#N)c3ccc(OCCCn4cncn4)cc3n2CC)cc1 [Compound 538],500 to 2000
11,CCOC(=O)Nc1ccc(-c2c(C#N)c3ccc(OCCCN4CCOCC4)cc3n2CC)cc1 [Compound 539],< 500
12,C=CS(=O)(=O)Nc1cccc(-c2c(C#N)c3ccc(C(F)(F)F)cc3n2CC)c1 [Compound 562],< 500
13,CCn1c(-c2cccc(NC(=O)OC)c2)c(C#N)c2ccc(OC(C)C)cc21 [Compound 581],500 to 2000
14,CCOC(=O)Nc1cccc(-c2c(C#N)c3ccc(OC(C)C)cc3n2CC)c1 [Compound 582],500 to 2000
15,CCCOC(=O)Nc1cccc(-c2c(C#N)c3ccc(OC(C)C)cc3n2CC)c1 [Compound 585],500 to 2000

# Same assay, conditions: Replicon IC50 values are determined by firefly luciferase signal; bicistronic replicon, 2 days; read-out: Replicon IC5Os
row,Structure (SMILES),IC50 [nM]
1,CCOC(=O)Nc1cccc(-c2c(C#N)c3ccc(OCCCl)cc3n2CC)c1 [Compound 504],> 2000
2,CCn1c(-c2cccc(NS(=O)(=O)CC)c2)c(C#N)c2cc(OC)ccc21 [Compound 505],> 2000
3,CCOC(=O)Nc1cccc(-c2c(C#N)c3cc(OC)ccc3n2CC)c1 [Compound 506],> 2000
4,CCn1c(-c2cccc(NC(=O)OC(C)C)c2)c(C#N)c2cc(OC)ccc21 [Compound 507],> 2000
5,CCCOC(=O)Nc1cccc(-c2c(C#N)c3cc(OC)ccc3n2CC)c1 [Compound 508],> 2000
6,CCn1c(-c2cccc(NC(=O)OCCCCl)c2)c(C#N)c2cc(OC)ccc21 [Compound 509],> 2000
7,CCCNC(=O)Nc1cccc(-c2c(C#N)c3cc(OC)ccc3n2CC)c1 [Compound 511],> 2000
8,CCOC(=O)NC(=O)Nc1cccc(-c2c(C#N)c3cc(OC)ccc3n2CC)c1 [Compound 512],> 2000
9,CCn1c(-c2cccc(NC(=O)Nc3cccc(C(F)(F)F)c3)c2)c(C#N)c2cc(OC)ccc21 [Compound 513],> 2000
10,CCn1c(NC)c(C#N)c2ccc(C(F)(F)F)cc21 [Compound 514],> 2000
11,CCS(=O)(=O)Nc1ccc(-c2cc3ccc(OC(F)F)cc3n2C)cc1 [Compound 515],500 to 2000
12,CCS(=O)(=O)Nc1ccc(-c2cc3ccc(OC(F)F)cc3n2C(C)C)cc1 [Compound 517],> 2000
13,CCCn1c(-c2ccc(NS(=O)(=O)CC)cc2)c(C#N)c2ccc(OC(F)F)cc21 [Compound 522],< 500
14,CCS(=O)(=O)Nc1ccc(-c2c(C#N)c3ccc(OC(F)F)cc3n2C(C)C)cc1 [Compound 524],< 500
15,CCOC(=O)Nc1cccc(-c2c(C#N)c3ccc(OCCCN4CCSCC4)cc3n2CC)c1 [Compound 527],500 to 2000
16,CCOC(=O)Nc1cccc(-c2c(C#N)c3ccc(OCCCN4CCCCC4)cc3n2CC)c1 [Compound 528],500 to 2000
17,CCOC(=O)Nc1cccc(-c2c(C#N)c3ccc(OCCCn4ccnn4)cc3n2CC)c1 [Compound 529],500 to 2000
18,CCn1c(-c2cccc(NS(=O)(=O)NC)c2)c(C#N)c2ccc(OC)cc21 [Compound 540],500 to 2000
19,CCNS(=O)(=O)Nc1cccc(-c2c(C#N)c3ccc(OC)cc3n2CC)c1 [Compound 541],> 2000
20,CCCOC(=O)Nc1ccc(-c2c(C#N)c3ccc(OCCF)cc3n2CC)cc1 [Compound 547],< 500
21,COc1ccc2c(C#N)c(-c3cccc(NC(=O)OCCCl)c3)n(C(C)C)c2c1 [Compound 553],> 2000
22,C#CCOC(=O)Nc1cccc(-c2c(C#N)c3ccc(OC)cc3n2C(C)C)c1 [Compound 554],> 2000
23,COCCOC(=O)Nc1cccc(-c2c(C#N)c3ccc(OC)cc3n2C(C)C)c1 [Compound 555],> 2000

row,Structure (SMILES),IC50 [nM]
1,COc1ccc2c(C#N)c(-c3cccc(NC(=O)OCc4ccccc4)c3)n(C(C)C)c2c1 [Compound 556],> 2000
2,COc1ccc(OC(=O)Nc2cccc(-c3c(C#N)c4ccc(OC)cc4n3C(C)C)c2)cc1 [Compound 557],500 to 2000
3,CCn1c(-c2cccc(NC(=O)CCl)c2)c(C#N)c2ccc(C(F)(F)F)cc21 [Compound 558],500 to 2000
4,CCC(=O)Nc1cccc(-c2c(C#N)c3ccc(C(F)(F)F)cc3n2CC)c1 [Compound 559],> 2000
5,CCn1c(-c2cccc(NC(=O)c3ccccc3)c2)c(C#N)c2ccc(C(F)(F)F)cc21 [Compound 560],> 2000
6,CCn1c(-c2cccc(NC(=O)C3CC3)c2)c(C#N)c2ccc(C(F)(F)F)cc21 [Compound 561],> 2000
7,CCn1c(-c2ccc(C(=O)NCCNC)cc2)c(C#N)c2ccc(OC)cc21 [Compound 564],500 to 2000
8,CCn1c(-c2ccc(NC(C)=O)cc2)c(C#N)c2ccccc21 [Compound 565],> 2000
9,CCn1c(-c2ccc(NC(=O)COC)cc2)c(C#N)c2ccccc21 [Compound 566],> 2000
10,CCn1c(-c2ccc(C(N)=O)cc2)c(C#N)c2cc(OC)ccc21 [Compound 568],> 2000
11,CCNC(=O)c1ccc(-c2c(C#N)c3cc(OC)ccc3n2CC)cc1 [Compound 569],500 to 2000
12,CCn1c(-c2ccc(C(=O)NC3CC3)cc2)c(C#N)c2cc(OC)ccc21 [Compound 571],500 to 2000
13,CCn1c(-c2ccc(C(=O)NCCOC)cc2)c(C#N)c2cc(OC)ccc21 [Compound 572],500 to 2000
14,CCn1c(-c2ccc(C(=O)N3CCCN(C)CC3)cc2)c(C#N)c2cc(OC)ccc21 [Compound 573],> 2000
15,CCN(CC)S(=O)(=O)Nc1cccc(-c2c(C#N)c3ccc(OC)cc3n2CC)c1 [Compound 574],> 2000
16,CCS(=O)(=O)Nc1ccc(-c2cc3cc(OC)ccc3n2C)cc1 [Compound 575],500 to 2000
17,CCn1c(-c2cccc(NS(=O)(=O)N3CCCC3)c2)c(C#N)c2ccc(OC)cc21 [Compound 576],> 2000
18,CCS(=O)(=O)Nc1ccc(-c2cc3c(OC)cccc3n2C)cc1 [Compound 577],500 to 2000
19,CCn1c(-c2ccc3occc3c2)c(C#N)c2ccc(OC)cc21 [Compound 578],500 to 2000
20,CCn1c(-c2cccc(NC(=O)OCCF)c2)c(C#N)c2ccc(OC(C)C)cc21 [Compound 583],500 to 2000
21,CCn1c(-c2cccc(NC(=O)OCCCl)c2)c(C#N)c2ccc(OC(C)C)cc21 [Compound 584],> 2000
22,CCn1c(-c2cccc(NC(=O)OCCCCl)c2)c(C#N)c2ccc(OC(C)C)cc21 [Compound 586],500 to 2000
23,CCn1c(-c2cccc(NC(=O)OC(C)C)c2)c(C#N)c2ccc(OC(C)C)cc21 [Compound 587],500 to 2000

row,Structure (SMILES),IC50 [nM]
1,C#CCOC(=O)Nc1cccc(-c2c(C#N)c3ccc(OC(C)C)cc3n2CC)c1 [Compound 588],> 2000
2,CCn1c(-c2cccc(NC(=O)OCCOC)c2)c(C#N)c2ccc(OC(C)C)cc21 [Compound 589],500 to 2000
3,CCn1c(-c2cccc(NC(=O)OCC(C)C)c2)c(C#N)c2ccc(OC(C)C)cc21 [Compound 591],> 2000
4,CC#CCOC(=O)Nc1cccc(-c2c(C#N)c3ccc(OC(C)C)cc3n2CC)c1 [Compound 592],> 2000
5,CCn1c(-c2cccc(NC(=O)OCc3ccccc3)c2)c(C#N)c2ccc(OC(C)C)cc21 [Compound 593],> 2000
6,CCn1c(-c2cccc(NC(=O)OCCl)c2)c(C#N)c2ccc(OC(C)C)cc21 [Compound 594],> 2000
7,CCCCOC(=O)Nc1cccc(-c2c(C#N)c3ccc(OC(C)C)cc3n2CC)c1 [Compound 595],> 2000
8,C=CCOC(=O)Nc1cccc(-c2c(C#N)c3ccc(OC(C)C)cc3n2CC)c1 [Compound 596],500 to 2000
9,C=CC(C)OC(=O)Nc1cccc(-c2c(C#N)c3ccc(OC(C)C)cc3n2CC)c1 (centres unmarked) [Compound 597],> 2000
10,CCCn1c(-c2cccc(NS(=O)(=O)CC)c2)c(C#N)c2ccc(OC)cc21 [Compound 599],> 2000
11,CCCNC(=O)Nc1cccc(-c2c(C#N)c3ccc(OC)cc3n2CCC)c1 [Compound 600],> 2000
12,CCOC(=O)Nc1cc(-c2c(C#N)c3ccc(OC(C)C)cc3n2CC)ccc1OC [Compound 603],> 2000
13,CCOC(=O)Nc1ccc(F)c(-c2c(C#N)c3ccc(OC(C)C)cc3n2CC)c1 [Compound 604],> 2000
14,CCOC(=O)Nc1cccc(-c2c(C#N)c3cc(N4CCOCC4)ccc3n2CC)c1 [Compound 605],> 2000
15,CCCS(=O)(=O)Nc1ccc(-c2c(C#N)c3cc(N4CCOCC4)ccc3n2CC)cc1 [Compound 608],500 to 2000
16,CCn1c(-c2ccc(NS(=O)(=O)CC)cc2)c(C#N)c2cc(N3CCOCC3)ccc21 [Compound 609],500 to 2000
17,CCn1c(-c2ccc(NS(=O)(=O)CC(F)(F)F)cc2)c(C#N)c2cc(Cl)ccc21 [Compound 615],> 2000
18,CCNC(=O)Nc1ccc(-c2c(C#N)c3cc(Cl)ccc3n2CC)cc1 [Compound 620],500 to 2000
19,CCCn1c(-c2ccc(NC(=O)OCC)cc2)c(C#N)c2ccc(OC)cc21 [Compound 624],500 to 2000
20,CCCOC(=O)Nc1ccc(-c2c(C#N)c3ccc(OC)cc3n2CCC)cc1 [Compound 625],< 500
21,CCn1c(-c2cccc(NS(=O)(=O)CCCCl)c2)c(C#N)c2cc(Cl)ccc21 [Compound 629],> 2000
22,CC(C)CCn1c(-c2ccc(NS(C)(=O)=O)cc2)c(C#N)c2cc(Cl)ccc21 [Compound 630],500 to 2000
